Experimental data published in the supplement of paper PMC11451515.

Tested on: NOMO1
Experiment: cell viability relative to DMSO control; higher = less cytotoxic
Conditions: 48 h
Summary of the method: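 Three leukemia lines were tested: NOMO1 and SEM at 500 cells/well and P12-Ichikawa at 1000 cells/well. Each was adapted for at least four passages in each medium and seeded in 5 μl in 1536-well plates, and library compounds in DMSO were pin-dosed from 47 μM to 0.79 nM in 11 threefold steps. After 48 h at 37°C, CellTiter-Glo One luminescence was read. Viability is a percentage relative to DMSO wells on each plate, with cell-free wells as background.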

[1] = HPLM + 10% dialyzed FBS, 0.000781 µM
[2] = HPLM + 10% dialyzed FBS, 0.00234 µM
[3] = HPLM + 10% dialyzed FBS, 0.00702 µM
[4] = HPLM + 10% dialyzed FBS, 0.0211 µM
[5] = HPLM + 10% dialyzed FBS, 0.0632 µM
[6] = HPLM + 10% dialyzed FBS, 0.19 µM
[7] = HPLM + 10% dialyzed FBS, 0.569 µM
[8] = HPLM + 10% dialyzed FBS, 1.71 µM
[9] = HPLM + 10% dialyzed FBS, 5.12 µM
[10] = HPLM + 10% dialyzed FBS, 15.4 µM
[11] = HPLM + 10% dialyzed FBS, 46.1 µM
[12] = RPMI 5 mM glucose + 10% FBS, 0.000781 µM
[13] = RPMI 5 mM glucose + 10% FBS, 0.00234 µM
[14] = RPMI 5 mM glucose + 10% FBS, 0.00702 µM
[15] = RPMI 5 mM glucose + 10% FBS, 0.0211 µM
[16] = RPMI 5 mM glucose + 10% FBS, 0.0632 µM
[17] = RPMI 5 mM glucose + 10% FBS, 0.19 µM
[18] = RPMI 5 mM glucose + 10% FBS, 0.569 µM
[19] = RPMI 5 mM glucose + 10% FBS, 1.71 µM
[20] = RPMI 5 mM glucose + 10% FBS, 5.12 µM
[21] = RPMI 5 mM glucose + 10% FBS, 15.4 µM
[22] = RPMI 5 mM glucose + 10% FBS, 46.1 µM
[23] = RPMI 5 mM glucose + 10% dialyzed FBS, 0.000781 µM
[24] = RPMI 5 mM glucose + 10% dialyzed FBS, 0.00234 µM
[25] = RPMI 5 mM glucose + 10% dialyzed FBS, 0.00702 µM
[26] = RPMI 5 mM glucose + 10% dialyzed FBS, 0.0211 µM
[27] = RPMI 5 mM glucose + 10% dialyzed FBS, 0.0632 µM
[28] = RPMI 5 mM glucose + 10% dialyzed FBS, 0.19 µM
[29] = RPMI 5 mM glucose + 10% dialyzed FBS, 0.569 µM
[30] = RPMI 5 mM glucose + 10% dialyzed FBS, 1.71 µM
[31] = RPMI 5 mM glucose + 10% dialyzed FBS, 5.12 µM
[32] = RPMI 5 mM glucose + 10% dialyzed FBS, 15.4 µM
[33] = RPMI 5 mM glucose + 10% dialyzed FBS, 46.1 µM

SMILES	cell viability [1] [%]	cell viability [2] [%]	cell viability [3] [%]	cell viability [4] [%]	cell viability [5] [%]	cell viability [6] [%]	cell viability [7] [%]	cell viability [8] [%]	cell viability [9] [%]	cell viability [10] [%]	cell viability [11] [%]	cell viability [12] [%]	cell viability [13] [%]	cell viability [14] [%]	cell viability [15] [%]	cell viability [16] [%]	cell viability [17] [%]	cell viability [18] [%]	cell viability [19] [%]	cell viability [20] [%]	cell viability [21] [%]	cell viability [22] [%]	cell viability [23] [%]	cell viability [24] [%]	cell viability [25] [%]	cell viability [26] [%]	cell viability [27] [%]	cell viability [28] [%]	cell viability [29] [%]	cell viability [30] [%]	cell viability [31] [%]	cell viability [32] [%]	cell viability [33] [%]
N#CC1(c2cccc(C(=O)Nc3cc(Oc4ccc5nc(NC(=O)C6CC6)sc5n4)ccc3F)c2Cl)CC1	105	121	114	113	119	93.8	91	56.6	39.2	18.2	18.2	115	113	107	100	103	105	104	76.7	48.8	10.7	10.6	118	123	96.5	98.2	98.7	90.6	72.9	70.1	53.9	16.9	15.6
NC(=O)N1CCC(CC(=O)N2CCC([C@H]3c4ncc(Br)cc4CCc4cc(Cl)cc(Br)c43)CC2)CC1	113	109	126	118	117	110	114	122	90	90	53.4	107	112	109	98.5	104	103	99.2	101	86.2	80.2	54.1	109	113	123	112	118	112	94	104	95.7	87.6	69.4
Cc1cccc(-c2[nH]c(C(C)(C)C)nc2-c2ccc3nccnc3c2)n1	113	135	110	117	111	133	123	128	112	114	47	133	121	117	124	123	98.2	124	106	106	114	96.6	119	112	122	108	113	119	120	118	112	98.2	51.4
CC(C)[C@H](O)C(=O)N[C@@H](C)C(=O)N[C@@H]1C(=O)N(C)CCc2ccccc21	93.5	132	111	113	113	125	109	101	101	92.6	76.7	98.7	119	117	114	117	98.5	125	105	108	110	92.5	112	109	123	112	110	114	108	108	112	103	97.2
CCCCCN(C)CCC(O)(P(=O)([O-])O)P(=O)(O)O	68.4	81.8	89	101	85.3	92.9	89.5	92.4	86	80	94	81.1	88.8	89.5	96.7	97.3	99.9	97.9	94.4	95	84.8	81.7	84.6	87.3	86.1	80	93.7	101	96.5	90.8	85.2	94.1	75
CC1=CC/2=C(C=C1C)N(C[C@@H](O)[C@@H](O)[C@@H](O)CO)C/3=N/C(=O)NC(=O)C3=N2	130	119	119	115	124	135	139	125	89.1	127	46.2	108	108	116	118	116	117	110	120	108	111	98.5	113	126	113	123	126	123	128	123	108	107	90.1
Cc1noc(N[S+](=O)([O-])c2ccc(N)cc2)c1C	92.3	91.3	109	97.9	95.6	101	109	114	96	92	104	98	92.7	88.6	89.5	108	102	113	111	106	91.6	104	92.3	90.7	71.5	92.6	89	89.7	92.6	96.2	90.3	94.6	81.4
OC1=C(Cl)C=C(N\C2=C(\C(=O)NC2=O)C3=C(C=CC=C3)[N+]([O-])=O)C=C1	100	98.3	103	106	120	106	83.8	70	68.9	56.8	60.7	94.3	106	116	102	99.5	95.9	94.5	95.4	86.5	69.6	10.1	90.2	98.7	102	112	119	116	96.4	94.2	78.6	73.9	12.1
NC(=O)c1nnn(Cc2cc(Cl)c(C(=O)c3ccc(Cl)cc3)c(Cl)c2)c1N	111	134	124	127	120	137	124	135	111	120	78.7	121	123	129	124	122	123	123	105	110	114	103	–	–	–	–	–	–	–	–	–	–	–
COCCCC/C(=N\OCCN)c1ccc(C(F)(F)F)cc1	85.7	80.4	79.2	85.2	94.8	91.8	78.6	64.2	81.3	48.9	3.91	84.2	82	80.9	84.5	80.7	79.5	82	83	72.5	72.7	25.5	72.7	80.1	83.5	88.8	90.1	73.1	75.9	80	77.1	77.1	28.7
CCCC[S+](=N)([O-])CCC(N)C(=O)O (stereo not given)	120	122	138	138	157	131	150	142	148	89.2	28.7	–	–	–	–	–	–	–	–	–	–	–	–	–	–	–	–	–	–	–	–	–	–
Nc1nccc(-c2ccc3noc(-c4ccc(Cl)cc4)c3c2)n1	–	–	–	–	–	–	–	–	–	–	–	101	117	103	127	102	111	115	107	108	101	104	121	115	115	120	122	110	127	106	118	116	113
CCn1c(C(=O)N(C2CC2)C2CC2)cc2c3c(ncn3C)c(Nc3cc(C)n(C)n3)nc21	90.4	113	106	114	122	115	113	105	108	119	88.5	86.7	100	93.9	118	117	103	114	102	102	111	84.4	84.1	104	105	94.7	116	111	115	112	110	116	98.6
CCN(CC)CCCC(C)Nc1ccnc2cc(Cl)ccc12 (stereo not given)	112	100	124	115	120	103	104	69.7	74	31.6	31.5	103	112	99.2	102	117	108	110	92.8	99.7	21.1	18	124	120	118	134	120	121	120	111	107	26.9	26.5
CC(=O)OCC(=O)[C@@]1(O)CC[C@H]2[C@@H]3CCC/4=C/C(=O)/C=C\[C@]4(C)[C@H]3[C@@H](O)C[C@]12C	–	–	–	–	–	–	–	–	–	–	–	131	119	121	119	114	119	120	112	119	106	115	–	–	–	–	–	–	–	–	–	–	–
COc1ccc(/C=C/C(=O)Nc2ccccc2C(=O)O)cc1OC	119	105	120	149	112	117	119	78.8	120	73.7	86.9	108	111	108	109	114	110	105	95	112	92.3	87.5	104	114	118	94.8	104	128	105	110	104	104	83.8
CC(C)[C@]12O[C@H]1[C@@H]3O[C@@]34[C@@]5(C)CC\C6=C(COC6=O)/[C@@H]5C[C@@H]7O[C@]47[C@@H]2O	118	7.83	7.37	6.84	8.16	7.58	7.57	6.99	6.9	3.84	2.95	107	6.29	7.04	6.27	7.93	7.51	6.66	6.58	5	4.13	1.89	106	5.9	5.75	5.32	6.01	6.39	5.39	5.08	4.8	3.96	2.22
